PubChem BioAssay (NCI)
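Growth conditions: 96-well plates. Treatment: test compound, 48 hours, 5 concentrations. Analysis: linear interpolation between bracketing concentrations; unreached endpoints set to highest concentration. The concentration for 50% growth inhibition is given as GI50. TGI: total growth inhibition.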

Legend:
Assay in all cases: NCI-60 cell line screen, 48 h
[1] = system: 786-0 renal
[2] = system: A498 renal
[3] = system: A549 NSCLC
[4] = system: ACHN renal
[5] = system: BT-549 breast
[6] = system: CAKI-1 renal
[7] = system: COLO 205 colon
[8] = system: DU-145 prostate
[9] = system: EKVX NSCLC
[10] = system: HCC-2998 colon
[11] = system: HCT-116 colon
[12] = system: HCT-15 colon
[13] = system: HL-60(TB) leukemia
[14] = system: HOP-62 NSCLC
[15] = system: HOP-92 NSCLC
[16] = system: HS 578T breast
[17] = system: HT29 colon
[18] = system: IGROV1 ovarian
[19] = system: K-562 leukemia
[20] = system: KM12 colon
[21] = system: LOX IMVI melanoma
[22] = system: M14 melanoma
[23] = system: MALME-3M melanoma
[24] = system: MCF7 breast
[25] = system: MDA-MB-231 breast
[26] = system: MDA-MB-435
[27] = system: MOLT-4 leukemia
[28] = system: NCI-H23 lung
[29] = system: NCI-H460 lung
[30] = system: NCI-H522 lung
[31] = system: NCI/ADR-RES ovarian
[32] = system: OVCAR-3 ovarian
[33] = system: OVCAR-4 ovarian
[34] = system: OVCAR-5 ovarian
[35] = system: OVCAR-8 ovarian
[36] = system: PC-3 prostate
[37] = system: RPMI-8226 leukemia
[38] = system: RXF 393 renal
[39] = system: SF-268 CNS
[40] = system: SF-295 CNS
[41] = system: SF-539 CNS
[42] = system: SK-MEL-2 melanoma
[43] = system: SK-MEL-28 melanoma
[44] = system: SK-OV-3 ovarian
[45] = system: SN12C renal
[46] = system: SNB-19 CNS
[47] = system: SNB-75 CNS
[48] = system: SR leukemia
[49] = system: SW-620 colon
[50] = system: T-47D breast
[51] = system: TK-10 renal
[52] = system: U251 CNS
[53] = system: UACC-257 melanoma
[54] = system: UACC-62 melanoma
[55] = system: UO-31 renal

## Cc1ccc(-c2nc(N3CCCNCC3)c3oc(-c4ccc(C)cc4)nc3n2)cc1
[1]
  GI50: 1.76 µM
  TGI: 3.25 µM
[2]
  GI50: 15.8 µM
  TGI: 31.7 µM
[3]
  GI50: 1.72 µM
  TGI: 3.13 µM
[4]
  GI50: 1.75 µM
  TGI: 3.13 µM
[5]
  GI50: 16.3 µM
  TGI: 35 µM
[6]
  GI50: 1.56 µM
  TGI: 3.02 µM
[7]
  GI50: 1.89 µM
  TGI: 3.55 µM
[8]
  GI50: 1.89 µM
  TGI: 3.3 µM
[9]
  GI50: 4.09 µM
  TGI: > 100 µM
[10]
  GI50: 32.3 µM
  TGI: > 100 µM
[11]
  GI50: 1.57 µM
  TGI: 2.92 µM
[12]
  GI50: 1.49 µM
  TGI: 2.96 µM
[13]
  GI50: 0.179 µM
  TGI: 0.371 µM
[14]
  GI50: 8.78 µM
  TGI: 24.3 µM
[15]
  GI50: 1.01 µM
  TGI: 2.3 µM
[16]
  GI50: 12.6 µM
  TGI: 31.9 µM
[17]
  GI50: 1.49 µM
  TGI: 2.85 µM
[18]
  GI50: 1.62 µM
  TGI: 3.19 µM
[19]
  GI50: 0.946 µM
  TGI: 2.68 µM
[20]
  GI50: 1.72 µM
  TGI: 3.2 µM
[21]
  GI50: 1.86 µM
  TGI: 3.46 µM
[22]
  GI50: 1.85 µM
  TGI: 3.55 µM
[23]
  GI50: 1.98 µM
  TGI: 3.61 µM
[24]
  GI50: 1.85 µM
  TGI: 3.88 µM
[25]
  GI50: 1.69 µM
  TGI: 3.11 µM
[26]
  GI50: 1.78 µM
  TGI: 3.17 µM
[27]
  GI50: 1.77 µM
  TGI: 3.59 µM
[28]
  GI50: 19.9 µM
  TGI: 88.2 µM
[29]
  GI50: 1.89 µM
  TGI: 3.43 µM
[30]
  GI50: 1.75 µM
  TGI: 3.51 µM
[31]
  GI50: 1.96 µM
  TGI: 3.74 µM
[32]
  GI50: 1.73 µM
  TGI: 3.1 µM
[33]
  GI50: 2.11 µM
  TGI: 4.67 µM
[34]
  GI50: 1.75 µM
  TGI: 3.17 µM
[35]
  GI50: 2.11 µM
  TGI: 4.22 µM
[36]
  GI50: 1.51 µM
  TGI: 2.91 µM
[37]
  GI50: 1.89 µM
  TGI: 4.22 µM
[38]
  GI50: 1.65 µM
  TGI: 3.14 µM
[39]
  GI50: 1.77 µM
  TGI: 3.48 µM
[40]
  GI50: 1.86 µM
  TGI: 3.54 µM
[41]
  GI50: 1.76 µM
  TGI: 3.29 µM
[42]
  GI50: 21.3 µM
  TGI: 45.4 µM
[43]
  GI50: 1.93 µM
  TGI: 3.51 µM
[44]
  GI50: 17.8 µM
  TGI: 31.6 µM
[45]
  GI50: 1.61 µM
  TGI: 3.06 µM
[46]
  GI50: 1.77 µM
  TGI: 3.25 µM
[47]
  GI50: 1.66 µM
  TGI: 3.02 µM
[48]
  GI50: 0.213 µM
  TGI: 0.575 µM
[49]
  GI50: 1.66 µM
  TGI: 3.2 µM
[50]
  GI50: 1.94 µM
  TGI: 4.17 µM
[51]
  GI50: 2.08 µM
  TGI: 3.96 µM
[52]
  GI50: 1.76 µM
  TGI: 3.18 µM
[53]
  GI50: 19.8 µM
  TGI: 41.1 µM
[54]
  GI50: 1.67 µM
  TGI: 3.08 µM
[55]
  GI50: 1.38 µM
  TGI: 2.68 µM
